The test has as its target T1, human FAAH-1 (Homo sapiens, UniProt O00519).
T1 sequence (O00519 1-579): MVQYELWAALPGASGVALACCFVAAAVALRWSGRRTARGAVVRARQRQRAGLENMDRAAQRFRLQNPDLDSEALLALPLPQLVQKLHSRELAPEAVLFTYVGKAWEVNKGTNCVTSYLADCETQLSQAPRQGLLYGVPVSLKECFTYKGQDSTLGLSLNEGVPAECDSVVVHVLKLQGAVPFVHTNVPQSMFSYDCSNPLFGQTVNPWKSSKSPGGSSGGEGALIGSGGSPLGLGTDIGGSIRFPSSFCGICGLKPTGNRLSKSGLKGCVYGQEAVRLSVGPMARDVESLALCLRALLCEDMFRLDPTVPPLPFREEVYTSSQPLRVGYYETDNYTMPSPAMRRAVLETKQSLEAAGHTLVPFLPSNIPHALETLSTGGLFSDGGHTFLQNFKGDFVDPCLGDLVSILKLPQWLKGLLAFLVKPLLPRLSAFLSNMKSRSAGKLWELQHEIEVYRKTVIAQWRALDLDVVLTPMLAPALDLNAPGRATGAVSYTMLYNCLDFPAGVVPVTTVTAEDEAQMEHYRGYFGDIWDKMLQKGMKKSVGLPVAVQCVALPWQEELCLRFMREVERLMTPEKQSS
Description: Whole cell anandamide hydrolysis assay (HeLa clone 5c5 transfected with human FAAH-1). Particulars: HeLa clone 5c5 expressing human FAAH-1; read-out: human FAAH whole cell IC50. The test is classed as cell-based. The method in brief: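 Stable HeLa clone 5c5 expressing human FAAH-1, pre-incubated with compound 10 min at 37° C in DMEM/F12 with 15 mM HEPES pH 7.4 and 0.1% fatty-acid-free BSA. [3H]-anandamide (5 μM stock) added for 15 min; [3H]-ethanolamine separated on charcoal and counted. IC50 from curves constrained to 100% and 0%.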

Experimental findings from US20150175599A1, “FAAH Inhibitors” (Ironwood Pharmaceuticals, Inc., priority 2010, published 2015) are described below.

Turning to `COc1ccc(Cn2c(C)c(C(=O)C(=O)Nc3ccnc(OC)c3)c3cc(OC)c(F)cc32)nc1` [Compound 32, 2-(6-fluoro-5-methoxy-1-((5-methoxypyridin-2-yl)methyl)-2-methyl-1H-indol-3-yl)-N-(2-methoxypyridin-4-yl)-2-oxoacetamide], the IC50 is < 100 nM.

For the molecule `COc1cc(NC(=O)C(=O)c2c(C)n(Cc3ccc(Cl)cc3)c3ccc(OC)nc23)ccn1` [Compound 36, 2-(1-(4-chlorobenzyl)-5-methoxy-2-methyl-1H-pyrrolo[3,2-b]pyridin-3-yl)-N-(2-methoxypyridin-4-yl)-2-oxoacetamide], the IC50 was < 100 nM.

For the molecule `CCN(CC)c1ccc2c(c1)c(C(=O)C(=O)Nc1ccnc(OC)c1)c(C)n2Cc1ccc(Cl)cc1` [Compound 24, 2-(1-(4-chlorobenzyl)-5-(diethylamino)-2-methyl-1H-indol-3-yl)-N-(2-methoxypyridin-4-yl)-2-oxoacetamide], the IC50 fell in the range of 100 to 1000 nM.

On to `COc1cc(NC(=O)C(=O)c2c(C)n(Cc3ncc(Cl)cc3Cl)c3ccc(C)cc23)ccn1` [Compound 30, 2-(1-((3,5-dichloropyridin-2-yl)methyl)-2,5-dimethyl-1H-indol-3-yl)-N-(2-methoxypyridin-4-yl)-2-oxoacetamide], for which the IC50 is < 100 nM.

For the molecule `Cc1c(C(=O)C(=O)Nc2cccc(Cl)c2)c2cc(O)ccc2n1Cc1ccc(Cl)cc1` [Compound 71, 2-(1-(4-chlorobenzyl)-5-hydroxy-2-methyl-1H-indol-3-yl)-N-(3-chlorophenyl)-2-oxoacetamide], the IC50 is < 100 nM.

For `COc1cc(NC(=O)C(=O)c2c(C)n(Cc3ccc(Cl)cc3)c3ccc(C(C)=O)cc23)ccn1` [Compound 5, 2-(5-acetyl-1-(4-chlorobenzyl)-2-methyl-1H-indol-3-yl)-N-(2-methoxypyridin-4-yl)-2-oxoacetamide], the IC50 was < 100 nM.

Regarding `COc1cc(NC(=O)C(=O)c2c(C)n(Cc3ncc(Cl)cc3Cl)c3cc(Cl)c(OC)cc23)ccn1` [Compound 70, 2-(6-chloro-1-((3,5-dichloropyridin-2-yl)methyl)-5-methoxy-2-methyl-1H-indol-3-yl)-N-(2-methoxypyridin-4-yl)-2-oxoacetamide], the IC50 was < 100 nM.

`COc1ccc2c(c1)c(C(=O)C(=O)Nc1ccnc(OC)c1Cl)c(C)n2Cc1ccc(Cl)cc1` [Compound 52, N-(3-chloro-2-methoxypyridin-4-yl)-2-(1-(4-chlorobenzyl)-5-methoxy-2-methyl-1H-indol-3-yl)-2-oxoacetamide]: the IC50 lay within 100 to 1000 nM.

Take `COc1cc(NC(=O)C(=O)c2c(C)n(Cc3ccc(Cl)cc3)c3ccc(Br)cc23)ccn1` [Compound 18, 2-(5-bromo-1-(4-chlorobenzyl)-2-methyl-1H-indol-3-yl)-N-(2-methoxypyridin-4-yl)-2-oxoacetamide]: the IC50 is < 100 nM.

As for `COc1cc(NC(=O)C(=O)c2c(C)n(Cc3ccc(Cl)cc3)c3ccc(N)c(Cl)c23)ccn1` [Compound 73, 2-(5-amino-4-chloro-1-(4-chlorobenzyl)-2-methyl-1H-indol-3-yl)-N-(2-methoxypyridin-4-yl)-2-oxoacetamide], the IC50 is < 100 nM.

Regarding `COc1cc(NC(=O)C(=O)c2c(C)n(Cc3ccc(Cl)cc3)c3ccc(N)cc23)ccn1` [Compound 20, 2-(5-amino-1-(4-chlorobenzyl)-2-methyl-1H-indol-3-yl)-N-(2-methoxypyridin-4-yl)-2-oxoacetamide], the IC50 is < 100 nM.

For the molecule `COc1cc(NC(=O)C(=O)c2c(C)n(Cc3ccc(Cl)cc3)c3ccc(COC(C)=O)cc23)ccn1` [Compound 10, (1-(4-chlorobenzyl)-3-(2-(2-methoxypyridin-4-ylamino)-2-oxoacetyl)-2-methyl-1H-indol-5-yl)methyl acetate], the IC50 is < 100 nM.

On to `COc1cc(NC(=O)C(=O)c2c(C)n(Cc3ccc(Cl)cn3)c3cc(Cl)c(OC)cc23)ccn1` [Compound 60, 2-(6-chloro-1-((5-chloropyridin-2-yl)methyl)-5-methoxy-2-methyl-1H-indol-3-yl)-N-(2-methoxypyridin-4-yl)-2-oxoacetamide], for which the IC50 is < 100 nM.

Take `COc1cc(NC(=O)C(=O)c2c(C)n(Cc3ccc(Cl)cc3)c3ccc(C(=O)N(C)C)cc23)ccn1` [Compound 6, 1-(4-chlorobenzyl)-3-(2-(2-methoxypyridin-4-ylamino)-2-oxoacetyl)-N,N,2-trimethyl-1H-indole-5-carboxamide]: the IC50 is 100 to 1000 nM.

For `COc1cc(NC(=O)C(=O)c2c(C)n(Cc3ccc(F)cc3F)c3cc(F)c(OC)cc23)ccn1` [Compound 14, 2-(1-(2,4-difluorobenzyl)-6-fluoro-5-methoxy-2-methyl-1H-indol-3-yl)-N-(2-methoxypyridin-4-yl)-2-oxoacetamide], the IC50 is < 100 nM.

`COc1ccc2c(c1)c(C(=O)C(=O)Nc1cc(OC)ncc1F)c(C)n2Cc1ccc(Cl)cc1` [Compound 54, 2-(1-(4-chlorobenzyl)-5-methoxy-2-methyl-1H-indol-3-yl)-N-(5-fluoro-2-methoxypyridin-4-yl)-2-oxoacetamide]: the IC50 is < 100 nM.

As for `COc1cc(NC(=O)C(=O)c2c(C)n(Cc3ccc(Cl)cc3)c3cccc(OC)c23)ccn1` [Compound 45, 2-(1-(4-chlorobenzyl)-4-methoxy-2-methyl-1H-indol-3-yl)-N-(2-methoxypyridin-4-yl)-2-oxoacetamide], the IC50 is < 100 nM.

Consider `COc1cc(NC(=O)C(=O)c2c(C)n(Cc3ccc(Cl)cn3)c3ccc(N)cc23)ccn1` [Compound 65, 2-(5-amino-1-((5-chloropyridin-2-yl)methyl)-2-methyl-1H-indol-3-yl)-N-(2-methoxypyridin-4-yl)-2-oxoacetamide], for which the IC50 was < 100 nM.

Take `CNCc1ccc2c(c1)c(C(=O)C(=O)Nc1ccnc(OC)c1)c(C)n2Cc1ccc(Cl)cc1` [Compound 25, 2-(1-(4-chlorobenzyl)-2-methyl-5-((methylamino)methyl)-1H-indol-3-yl)-N-(2-methoxypyridin-4-yl)-2-oxoacetamide]: the IC50 lay in the range of 100 to 1000 nM.

In the case of `COc1ccc2c(c1)c(C(=O)C(=O)Nc1ccnc(OC)c1)c(C)n2Cc1ccc(S(C)(=O)=O)cc1` [Compound 39, 2-(5-methoxy-2-methyl-1-(4-(methylsulfonyl)benzyl)-1H-indol-3-yl)-N-(2-methoxypyridin-4-yl)-2-oxoacetamide], the IC50 lay in the range of 1000 to 10000 nM.

Regarding `COc1cc(NC(=O)C(=O)c2c(C)n(Cc3ccc(Cl)cc3)c3cc(C)c(OC)cc23)ccn1` [Compound 74, 2-(1-(4-chlorobenzyl)-5-methoxy-2,6-dimethyl-1H-indol-3-yl)-N-(2-methoxypyridin-4-yl)-2-oxoacetamide], the IC50 was < 100 nM.

With `COc1cc(NC(=O)C(=O)c2c(C)n(Cc3ccc(Cl)cc3)c3cc(OC)c(OC)cc23)ccn1` [Compound 44, 2-(1-(4-chlorobenzyl)-5,6-dimethoxy-2-methyl-1H-indol-3-yl)-N-(2-methoxypyridin-4-yl)-2-oxoacetamide], the IC50 is < 100 nM.

As to `COc1ccc2c(c1)c(C(=O)C(=O)Nc1ccnc(OC)n1)c(C)n2Cc1ccc(Cl)cc1` [Compound 46, 2-(1-(4-chlorobenzyl)-5-methoxy-2-methyl-1H-indol-3-yl)-N-(2-methoxypyrimidin-4-yl)-2-oxoacetamide], the IC50 was < 100 nM.

As for `COc1cc(NC(=O)C(=O)c2c(C)n(Cc3ncc(F)cc3F)c3cc(F)c(OC)cc23)ccn1` [Compound 101, 2-(1-((3,5-difluoropyridin-2-yl)methyl)-6-fluoro-5-methoxy-2-methyl-1H-indol-3-yl)-N-(2-methoxypyridin-4-yl)-2-oxoacetamide], the IC50 was < 100 nM.

For the molecule `COc1ccc2c(C(=O)C(=O)Nc3ccnc(OC)c3)c(C)n(Cc3ccc(Cl)cc3)c2c1` [Compound 48, 2-(1-(4-chlorobenzyl)-6-methoxy-2-methyl-1H-indol-3-yl)-N-(2-methoxypyridin-4-yl)-2-oxoacetamide], the IC50 is < 100 nM.

On to `COc1cc(NC(=O)C(=O)c2c(C)n(Cc3ccc(Cl)cc3)c3ccc(O)cc23)ccn1` [Compound 2, 2-(1-(4-chlorobenzyl)-5-hydroxy-2-methyl-1H-indol-3-yl)-N-(2-methoxypyridin-4-yl)-2-oxoacetamide], for which the IC50 was < 100 nM.

Take `COc1cc(NC(=O)C(=O)c2c(C)n(Cc3ccc(Cl)cc3)c3ccc(OC)c(F)c23)ccn1` [Compound 59, 2-(1-(4-chlorobenzyl)-4-fluoro-5-methoxy-2-methyl-1H-indol-3-yl)-N-(2-methoxypyridin-4-yl)-2-oxoacetamide]: the 50% inhibitory concentration (IC50) was < 100 nM.

With `COc1cnc2c(c1)c(C(=O)C(=O)Nc1ccnc(OC)c1)c(C)n2Cc1ncc(Cl)cc1Cl` [Compound 29, 2-(1-((3,5-dichloropyridin-2-yl)methyl)-5-methoxy-2-methyl-1H-pyrrolo[2,3-b]pyridin-3-yl)-N-(2-methoxypyridin-4-yl)-2-oxoacetamide], the IC50 is < 100 nM.

On to `COc1cc(NC(=O)C(=O)c2c(C)n(Cc3ccc(Cl)cc3)c3ccc(OC(C)=O)cc23)ccn1` [Compound 1, 1-(4-chlorobenzyl)-3-(2-(2-methoxypyridin-4-ylamino)-2-oxoacetyl)-2-methyl-1H-indol-5-yl acetate], for which the IC50 was < 100 nM.
